From patent US20240101570A1 (AMGEN INC., priority 2020, published 2024) come the findings set out here.

In assay [1] the test system is HCT116 WT cells. Kind of assay: HCT116 WT cell proliferation / viability (CellTiter-Glo, 6 days). The class given is cell-based. The following applies: Homo sapiens, HCT-116, 144 h, HCT116 WT cells, 6 days, CellTiter-Glo; read-out: HCT-116 WT IC50. Put shortly:
(§1)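 CellTiter-Glo luminescence, 6-day exposure, RPMI 1640 + 10% FBS. Dosing: 1:3 series (8-9 pts, top 1 or 10 μM) or 1:2 series (22 pts, top 10 or 50 μM), DMSO control. IC50 = 50% of control via curve fit.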
On the technique in general: In ATP-based viability assays light output follows the ATP content of the culture.

Assay [2] has as its system HCT116 MTAP null cells. Kind of assay: HCT116 MTAP null cell proliferation / viability (CellTiter-Glo, 6 days). The assay is classed as cell-based. The following applies: HCT116-MTAP null, 144 h, HCT116 MTAP null cells, 6 days, CellTiter-Glo; read-out: HCT-116 MTAP null IC50. Summed up:
as §1

One may read the IC50 as the concentration at which inhibition is half-maximal. Turning to `COc1ccc(CN(C(=O)c2cc3c4c(c(N)nc3cn2)COC4)C(C)C)nc1Cl` [Example 683, 4-amino-N-((6-chloro-5-methoxy-2-pyridinyl)methyl)-N-(2-propanyl)-1,3-dihydrofuro[3,4-c][1,7]naphthyridine-8-carboxamide], the IC50 is more than 10 µM in assay [1] and 0.235 µM in assay [2].

As for `Cn1cc(N(Cc2ccc(C(F)(F)F)cn2)C(=O)c2cc3c(cn2)nc(N)c2cnn(C)c23)cn1` [Example 507, 4-amino-1-methyl-N-(1-methyl-1H-pyrazol-4-yl)-N-((5-(trifluoromethyl)-2-pyridinyl)methyl)-1H-pyrazolo[4,3-c][1,7]naphthyridine-8-carboxamide], the IC50 was 0.373 µM in assay [1] and 0.025 µM in assay [2].

With `CC(C)CN(Cc1ccc(C(F)(F)F)cn1)C(=O)c1ccc2nc(N)c3c(c2c1)CCC3` [Example 611, 4-amino-N-(2-methylpropyl)-N-((5-(trifluoromethyl)-2-pyridinyl)methyl)-2,3-dihydro-1H-cyclopenta[c]quinoline-8-carboxamide], the IC50 in assay [1] turned out to be 0.474 µM; in assay [2], 0.084 µM.

Regarding `CN(Cc1ccc(C(F)(F)F)cn1)C(=O)c1ccc2nc(N)c3c(c2c1)COC3` [Example 450, 4-amino-N-methyl-N-((5-(trifluoromethyl)-2-pyridinyl)methyl)-1,3-dihydrofuro[3,4-c]quinoline-8-carboxamide], the IC50 was found to be 11.5 µM in assay [1] and 0.159 µM in assay [2].

Regarding `COC[C@@H](C)N(Cc1ccc(C(F)(F)F)cn1)C(=O)c1ccc2nc(N)c3c(c2c1)COC3` [Example 445, 4-amino-N-((2R)-1-methoxy-2-propanyl)-N-((5-(trifluoromethyl)-2-pyridinyl)methyl)-1,3-dihydrofuro[3,4-c]quinoline-8-carboxamide], the IC50 in assay [1] amounted to 0.153 µM; in assay [2], 0.008 µM.

Consider `CN(Cc1ccc(C(F)(F)F)cn1)C(=O)c1cc2c(cn1)nc(N)c1cnn(C)c12` [Example 568, 4-amino-N,1-dimethyl-N-((5-(trifluoromethyl)-2-pyridinyl)methyl)-1H-pyrazolo[4,3-c][1,7]naphthyridine-8-carboxamide], for which the figures for the half-inhibitory concentration (IC50) in assay [1] and in assay [2] were 5.39 µM and 0.091 µM, respectively.

`CC(c1ccc(F)cn1)N(C)C(=O)c1cc2c3c(c(N)nc2cc1Cl)COC3` (racemic) [Example 772, 4-amino-7-chloro-N-((1R)-1-(5-fluoro-2-pyridinyl)ethyl)-N-methyl-1,3-dihydrofuro[3,4-c]quinoline-8-carboxamide and 4-amino-7-chloro-N-((1S)-1-(5-fluoro-2-pyridinyl)ethyl)-N-methyl-1,3-dihydrofuro[3,4-c]quinoline-8-carboxamide]: the figures for the IC50 in assay [1] and in assay [2] were 18.2 µM and 0.374 µM, respectively.

Take `Nc1nc2ccc(C(=O)N(Cc3ccc(C(F)F)cn3)C3CC3)cc2c2c1COC2` [Example 456, 4-amino-N-cyclopropyl-N-((5-(difluoromethyl)-2-pyridinyl)methyl)-1,3-dihydrofuro[3,4-c]quinoline-8-carboxamide]: the results for the IC50 in assay [1] and in assay [2] were more than 10 µM and 0.287 µM, respectively.

`CC1OCc2c1c(N)nc1ccc(C(=O)N(Cc3ccc(C(F)(F)F)cn3)C3CCOCC3C)cc21` (centres unmarked) [Example 901, 4-amino-3-methyl-N-(3-methyltetrahydro-2H-pyran-4-yl)-N-((5-(trifluoromethyl)pyridin-2-yl)methyl)-1,3-dihydrofuro[3,4-c]quinoline-8-carboxamide]: the half-inhibitory concentration (IC50) is 0.43 µM in assay [1] and 0.042 µM in assay [2].

For `CCOc1ccc(CN(CC2CC2)C(=O)c2cc3c4c(c(N)nc3cn2)COC4)nn1` [Example 753, 4-amino-N-(cyclopropylmethyl)-N-((6-ethoxy-3-pyridazinyl)methyl)-1,3-dihydrofuro[3,4-c][1,7]naphthyridine-8-carboxamide], the figures for the IC50 in assay [1] and in assay [2] were 3.89 µM and 0.124 µM, respectively.
